{"source": "the NIST ThermoML archive (doi:10.1021/je7001144)", "settings": "Liquid, Ebulliometric method (Recirculating still)", "note": "Numbers after ± are expanded uncertainties.", "data": [{"smiles": "FC(F)=C(F)Cl", "note": "[1-chloro-1,2,2-trifluroethene]", "values": [{"measurement": "vapor or sublimation pressure", "setting": "267.67 K", "value": "248 ± 1", "unit": "kPa"}, {"measurement": "vapor or sublimation pressure", "setting": "272.54 K", "value": "294.4 ± 1.2", "unit": "kPa"}, {"measurement": "vapor or sublimation pressure", "setting": "277.45 K", "value": "347.8 ± 1.4", "unit": "kPa"}, {"measurement": "vapor or sublimation pressure", "setting": "282.62 K", "value": "408.1 ± 1.6", "unit": "kPa"}]}, {"smiles": "C=COC(F)(F)F", "note": "[perfluoromethyl vinyl ether]", "values": [{"measurement": "vapor or sublimation pressure", "setting": "267.67 K", "value": "222.4 ± 0.9", "unit": "kPa"}, {"measurement": "vapor or sublimation pressure", "setting": "272.54 K", "value": "264.7 ± 1.1", "unit": "kPa"}, {"measurement": "vapor or sublimation pressure", "setting": "277.45 K", "value": "313.2 ± 1.3", "unit": "kPa"}, {"measurement": "vapor or sublimation pressure", "setting": "282.62 K", "value": "367.3 ± 1.5", "unit": "kPa"}]}]}
